Data as given in article PMC5819996 (Cell chemical biology, 2017).

Tests used:
MBP-UbiB^CΔ47 = MBP-UbiB^CΔ47 (Escherichia coli, UniProt P0A6A0); test: malachite green ATPase assay; assay type: biochemical; conditions: 100 μM ATP, 4 mM MgCl2, 1 mM Triton X-100 and 2-alkylphenols, pH 7.5, 30 °C
COQ8A^NΔ250 = COQ8A^NΔ250 (Homo sapiens, UniProt Q8NI60); test: malachite green ATPase assay; assay type: biochemical; conditions: 100 μM ATP, 4 mM MgCl2, 1 mM Triton X-100 and 2-alkylphenols, pH 7.5, 30 °C
Sequence of COQ8A^NΔ250 (Q8NI60 251-647, stated change not applied): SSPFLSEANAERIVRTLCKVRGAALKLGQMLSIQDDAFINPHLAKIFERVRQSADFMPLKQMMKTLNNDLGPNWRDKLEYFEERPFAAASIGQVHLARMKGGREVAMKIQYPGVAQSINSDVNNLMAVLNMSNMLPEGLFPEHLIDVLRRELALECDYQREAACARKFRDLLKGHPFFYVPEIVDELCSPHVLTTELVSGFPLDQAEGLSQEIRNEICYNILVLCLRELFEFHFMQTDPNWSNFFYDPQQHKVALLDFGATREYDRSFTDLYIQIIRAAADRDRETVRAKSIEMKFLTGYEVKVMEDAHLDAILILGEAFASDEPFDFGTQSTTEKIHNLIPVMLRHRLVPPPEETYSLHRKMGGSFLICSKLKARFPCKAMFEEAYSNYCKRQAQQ

Sequence of MBP-UbiB^CΔ47 (P0A6A0 1-499, stated change not applied): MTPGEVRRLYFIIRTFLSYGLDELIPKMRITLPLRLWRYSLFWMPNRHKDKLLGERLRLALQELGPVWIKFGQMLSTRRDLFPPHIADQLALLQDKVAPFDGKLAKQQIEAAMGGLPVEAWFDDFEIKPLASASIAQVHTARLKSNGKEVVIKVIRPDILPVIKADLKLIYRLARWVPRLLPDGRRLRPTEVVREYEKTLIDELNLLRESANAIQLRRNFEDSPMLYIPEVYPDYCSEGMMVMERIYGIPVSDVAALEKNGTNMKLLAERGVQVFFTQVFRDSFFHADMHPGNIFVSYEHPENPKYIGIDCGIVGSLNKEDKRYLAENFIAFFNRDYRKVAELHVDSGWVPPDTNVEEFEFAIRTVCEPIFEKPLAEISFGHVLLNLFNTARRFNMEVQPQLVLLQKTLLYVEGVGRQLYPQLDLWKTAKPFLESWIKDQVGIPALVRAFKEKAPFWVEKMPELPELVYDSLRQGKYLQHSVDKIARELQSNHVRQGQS

Nc1ncnc2c1ncn2[C@@H]1O[C@H](COP(=O)(O)OP(=O)(O)OP(=O)(O)O)[C@@H](O)[C@H]1O [ATP]
malachite green ATPase assay (MBP-UbiB^CΔ47): 2-alkylphenols with Triton X-100 increase the ATPase activity of UbiB family members | malachite green ATPase assay (COQ8A^NΔ250): 2-alkylphenols with Triton X-100 increase the ATPase activity of UbiB family members
